Data as given in patent publication US7205285B2, “Acyl phosphonate inhibitors of β-lactamases” (Methylgene, Inc., priority 1997, dated 2007).
pIC50: −log10 of the molar value.

Assays:
[1] = biological target: TEM-2 plasmid (TEM) β-lactamase (Escherichia coli, UniProt P62593, Q37K); assay type: biochemical; conditions: values in parentheses
Ent. Cloacae = assay: Microbiological testing: potentiation of β-lactam antibiotic; assay type: cell-based; conditions: compound at 100 μg/mL
Text: (§1) To test the inhibitors of the invention, a wide range of organisms are used to assess compounds according to the invention; both as antibiotics and as β-Lactamase inhibitors: Initial screening for antibiotic activity utilizes penicillin sensitive S. aureus [ATTC# 25923], ampicillin sensitive H. influenzae [ATCC#10211] and clinical laboratory isolates of ampicillin sensitive E. faecalis and H. influenzae, and non-resistant P. aeruginosa. Initial studies utilize, in microtiter wells, 1 microgram of compound in 10 microliters diluted stock solution, 41,100 CFU of bacteria in 10 microliters broth solution and 80 microliters CAMHB. The count verification well contains 10 microliters CAMHB in place of the test compound. […] Microbiological and enzymatic testing is carried on duplicate plates with negative control plates.
(§2) Compounds were tested at a concentration of 100 μg/mL.
(§3) In Table 5, the microorganism tested against is shown in italics, while the antibiotic agent used is shown in plain text. […] When determined, the number in parentheses indicates the fold reduction in the MIC of the antibiotic agent when measured in the presence of the inhibitor of the invention.

Haemophilus Influenzae = assay: as above; assay type: cell-based; conditions: Ticarcillin, compound at 100 μg/mL
Text: as §1, §2, §3

[2] = biological target: T1, Enterobacter cloacae P99 β-lactamase (Enterobacter cloacae, UniProt P05364); assay type: biochemical; conditions: values in parentheses, second order rate constant for inhibition
T1 construct: purchased Porton Down, Wiltshire, U.K
Description: To evaluate the inhibitors and the methods of the invention, representative inhibitors preparations were tested using class A (TEM-2 plasmid TEM)) β-lactamase and class C (Enterobacter cloacae P99 β-lactamase) β-lactamases (Porton Down, Wiltshire, U.K.) as well as representative DD-peptidases/carboxydases (e.g., Streptomyces R61 DD-peptidases) as the assayed enzyme.
Steady state kinetic parameters were directly obtained for representative inhibitors with the P99 β-lactamase with TEM β-lactamase by standard methods (e.g., Wilkinson, Biochem J. 80:324–332 (1989)) from spectrophotometric initial velocity measurements. Kinetic parameters were also obtained for DD-peptidase as the assayed enzyme, according to standard methods using hyppuryl-DL-phenyl-lactate (a known DD-peptidase substrate) (e.g. Govardhan and Pratt, Biochemistry 26:3385–3395 (1987)). The concentration of stock enzyme solutions were determined spectrophotometrically (e.g., Xu, et al., Biochemistry 35:[…] (1996)).
Representative class C and a class A β-lactamases were inhibited by representative inhibitors of Formulae I and II in a time-dependent fashion as described by the relation:
Representative inhibitors of the invention having Formula I may act by forming a covalent bond between β-lactamases and the inhibitor (i.e., irreversible inhibition). This type of inhibition is therefore time dependent. It is distinguished from reversible inhibition in so far that the backward reaction is extremely slow. […] Thus, irreversible inhibition is measured by how fast the event takes place (rate constant ki). Thus, inhibitory efficiency is expressed by large ki values.
Representative inhibitors of Formula I may also act by forming a transient acyl-enzyme intermediate. Inhibition results from a slow turn over, (de-acylation) of the intermediate.
In Table 3, kcat/km values are presented in plain text, with ki values for representative inhibitors appearing in parentheses. […]

[3] = biological target: T1, Enterobacter cloacae P99 β-lactamase; assay: Inhibition of P99 β-lactamase, nitrocefin assay (IC50); assay type: biochemical; conditions: nitrocefin substrate, 20 mM MOPS pH 7.50
Description: The enzyme (Enterobacter cloacae P99 β-lactamase) was dissolved to a concentration of 1 mg/mL in 20 mM MOPS buffer at pH 7.50, and then diluted 200-fold in the same buffer containing 0.1% BSA. The commercially available substrate nitrocefin was added as a 100 μM stock solution in 20 mM MOPS buffer, and inhibitors were also added as solutions in MOPS buffer. In a typical assay the following amounts were used: 300 μL of nitrocefin, 10 μL of P99 β-lactamase, x μL of inhibitor, and […] of MOPS buffer. Enzyme activity was measured at 25 EC, and the reaction was monitored spectrophotometrically at 482 nm. IC50 values were determined from the dose-response plots of the initial reaction rate vs. inhibitor concentration.

[4] = Spontaneous hydrolysis in neutral aqueous solution; assay type: physicochemical; conditions: for spontaneous hydrolysis, in words: neutral aqueous solution, relative to most compounds of the invention
Description: The cyclic phosphoryl chloride (500 mg; 2.3 mmol) was suspended in 60 mL of anhydrous acetonitrile (Aldrich, Sure/Seal) and water (41 μL, 2.3 mmol) added with magnetic stirring. The mixture was then gently warmed until the crystals of the starting material disappeared (ca. 5 min.). Two molar equivalents of redistilled dicyclohexylamine (913 μL) were then added. The immediately precipitating solid ([…]) was removed by vacuum filtration and the remaining solvent by rotary evaporation.

Staph. Aureaus = assay: Microbiological testing: potentiation of β-lactam antibiotic; assay type: cell-based; conditions: Piperacillin, compound at 100 μg/mL
Text: as §1, §2, §3

| Structure (SMILES) | ki [2] | other results |
| --- | --- | --- |
| O=C(OP(=O)(O)OC(=O)c1ccccc1)c1ccccc1 [XIV, sodium dibenzoyl phosphate] |  | ki [1]: 0.120(14.3) s^−1 M^−1 |
| COP(=O)(O)OC(=O)c1ccccc1 [VIII] |  | fold reduction in the MIC of the antibiotic agent (Ent. Cloacae; Cefoxitin): 2 fold; fold reduction in the MIC of the antibiotic agent (Ent. Cloacae; Ceftriaxone): 2 fold; fold reduction in the MIC of the antibiotic agent (Haemophilus Influenzae): 0 fold |
| Cc1cccc(C)c1C(=O)OP(=O)(O)Oc1ccccc1 [Compound XXVIII] | (20.9 ± 1.5) s^−1 M^−1 |  |
| O=C(OP(=O)(O)c1ccc([N+](=O)[O-])cc1)c1ccccc1 [Compound XVIII] | 0.0125(25 ± 3) s^−1 M^−1 |  |
| O=C(OP(=O)(O)Oc1ccccc1)c1ccc(-c2ccccc2)cc1 [Compound XXVII] | ≤ 3 s⁻¹ M⁻¹ |  |
| O=C(OP(=O)(O)Oc1cccc2ccccc12)c1ccccc1 [Compound XII] |  | pIC50 [3]: 5.10 |
| O=C(OP(=O)(O)Oc1ccc2ccccc2c1)c1cc2ccccc2s1 [Compound XXX] | 1813 ± 3 s⁻¹ M⁻¹ |  |
| COc1ccccc1C(=O)OP(=O)(O)Oc1ccccc1 [Compound XXIX] | 3.6 ± 0.4 s⁻¹ M⁻¹ |  |
| CCCCCCOP(=O)(O)OC(=O)c1ccccc1 [Compound XVII] | 0.125(≦1) s^−1 M^−1 |  |
| O=C(NCP(=O)(O)OC(=O)c1ccccc1)OCc1ccccc1 [XXXIII] | (5.9 ± 0.3 × 10^4) s^−1 M^−1 | ki [1]: (130 ± 8) s^−1 M^−1; spontaneous hydrolysis, in words [4]: more rapidly hydrolyzed |
| O=C(OP(=O)(O)c1cccc([N+](=O)[O-])c1)c1ccccc1 [Compound XIX] | 0.0179(65 ± 19) s^−1 M^−1 |  |
| O=C(Cc1ccccc1)NCC(=O)OP(=O)(O)Oc1ccccc1 [XXXII] |  | spontaneous hydrolysis, in words [4]: more rapidly hydrolyzed |
| O=C(Cc1ccccc1)OP(=O)(O)Oc1ccccc1 [Compound X] | ≤ 0.04 s⁻¹ M⁻¹ | pIC50 [3]: 4.52; spontaneous hydrolysis, in words [4]: shorter half-lives |
| O=C(OP(=O)(O)Oc1ccccc1)c1cc2ccccc2s1 [Compound XXVI] | ≤ 5 s⁻¹ M⁻¹ |  |
| O=C(/C=C/c1ccccc1)OP(=O)(O)Oc1ccccc1 [Compound XXV] | ≤ 1 s⁻¹ M⁻¹ |  |
| O=C1C=C(c2ccccc2)OP(=O)(O)O1 [Compound XVI] |  | fold reduction in the MIC of the antibiotic agent (Staph. Aureaus): 2 fold |
| O=C(OP(=O)(O)c1ccc(-c2ccccc2)cc1)c1ccccc1 [Compound XXI] | 0.117(89 ± 4) s^−1 M^−1 |  |
| O=C(OP(=O)(O)Oc1ccc([N+](=O)[O-])cc1)c1ccccc1 [Compound XI] | ≤ 2 s⁻¹ M⁻¹ | pIC50 [3]: 4.41 |
| CCCCCCP(=O)(O)OC(=O)c1ccccc1 [Compound XXII] | 0.0226(11.1 ± 0.1) s^−1 M^−1 |  |
| O=C(OP(=O)(O)Oc1ccc2ccccc2c1)c1ccccc1 [Compound XXXI] | ≤ 1 s⁻¹ M⁻¹ |  |
| O=C(OP(=O)(O)c1ccc2ccccc2c1)c1ccccc1 [Compound XX] | 0.0551(115 ± 5) s^−1 M^−1 |  |
| O=C1OP(=O)(O)Oc2ccccc21 [V, 1-hydroxy-4,5-benz-2.6-dioxaphosphorinanone-(3)-1-oxide] |  | rate of hydrolysis kobs ([4]; 20 mM MOPS, pH 7.5, 25° C.): 1.7e-05 s⁻¹ |
| O=C(OP(=O)(O)Oc1ccccc1)c1ccccc1 [XIII, sodium benzoyl phenyl phosphate] |  | ki [1]: 0.001(0.2) s^−1 M^−1 |
